Earlier results in US6916480B2, “Wiper containing a controlled-release anti-microbial agent” (Kimberly-Clark Worldwide, Inc., priority 1999, dated 2005).

How the values were obtained:
E. Coli = details: according to most literature
Salmonella spp. = details: according to most literature

Structure (SMILES): [Ag] [silver]
- silver content that can effectively kill microbes (E. Coli): 20 parts per billion (ppb)
- silver content that can effectively kill microbes (Salmonella spp.): 20 parts per billion (ppb)
